Test results: article PMC8308585, “Design and Synthesis of Novel Thiazolo[5,4-d]pyrimidine Derivatives with High Affinity for Both the Adenosine A1 and A2A Receptors, and Efficacy in Animal Models of Depression” (Pharmaceuticals, 2021)

Experiments:
hA2B AR = molecular target: T1, hA2B AR (Homo sapiens, UniProt P29275); set-up: method as in PMID 30638876; conditions: inhibition of NECA-stimulated adenylyl cyclase activity, CHO cells; ref [34]; cited from earlier work
T1 construct: expressed in transfected cells; host or cells: CHO cells
T1 sequence (P29275 1-332): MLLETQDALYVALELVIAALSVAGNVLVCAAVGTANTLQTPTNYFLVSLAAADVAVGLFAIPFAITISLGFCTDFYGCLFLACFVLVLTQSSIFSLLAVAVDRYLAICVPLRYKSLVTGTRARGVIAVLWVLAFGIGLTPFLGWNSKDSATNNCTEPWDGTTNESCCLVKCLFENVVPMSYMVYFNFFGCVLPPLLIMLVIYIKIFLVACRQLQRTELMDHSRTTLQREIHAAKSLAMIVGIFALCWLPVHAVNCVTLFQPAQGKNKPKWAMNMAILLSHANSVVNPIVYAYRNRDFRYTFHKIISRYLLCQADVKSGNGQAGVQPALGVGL

mice [1] = assay: Forced swimming test; format: in vivo, mouse; conditions: mouse FST, 15 mg kg^−1 s.c., single dose 26 min before test, last 4 min of 6 min, mean ± SEM of 10 mice; vehicle 193.7 ± 8.9
Experimental: (§1) To execute the tests, mice were divided into groups, each of which consisted of 10 animals. The tests were performed after a single p.o. administration of compound 18 at different dosages (10 mg Kg^−1 and 30 mg Kg^−1). Amitriptyline (15 mg Kg^−1) was used as the reference drug. Compounds were acutely administrated 26 min before the beginning of the experiment. In the FST (Table 4), the duration of immobility was recorded during the last 4 min of the 6 min test.
(§2) Male CD-1 albino mice (22–25 g; Envigo, Varese, Italy) were housed in CeSAL (Centro Stabulazione Animali da Laboratorio, University of Florence, Florence, Italy) and used at least one week after their arrival. Animals were housed in 26 cm × 41 cm cages (12 mice each) and fed with a standard laboratory diet and tap water ad libitum. They were kept at 23 ± 1 °C with a 12 h light/dark cycle, light at 7 a.m. Compound 18 was administered per o.s. whereas amitriptyline was by a s.c. route following the most widely used approach reported in the literature.
Mice were individually placed into glass cylinders (height: 25 cm, diameter: 10 cm) containing 12 cm of water maintained at 22–23 °C for 6 min. Immobility was considered the animal floated in the water, in an upright position, and made only small movements to keep its head above water. The immobility time was recorded during the last 4-min of the 6-min test. A decrease in the duration of immobility is indicative of an antidepressant-like effect.
(§3) Behavioral tests were performed by visual observation by researchers blinded to the treatments. Results were expressed as means ± SEM, variance was analyzed by ANOVA. A Bonferroni’s significant difference procedure was used as post-hoc comparison. p values of less than 0.05 and 0.01 were considered significant. Data were analyzed using the “Origin 8.1” software.

mice [2] = assay: Tail suspension test; format: in vivo; conditions: mouse TST, 15 mg kg^−1 s.c., single dose, mean ± SEM of 10 mice; vehicle 99.0 ± 6.8
Experimental: as §1
A decrease in the duration of immobility is indicative of an antidepressant-like effect. […] Accordingly, a similar activity was shown in the tail suspension test (Table 5) where the immobility time was measured in the first 2 min, when animals react to the inescapable stress, and in the last 4 min of the test, when the behavioral despair is established. Immobility was defined as the absence of any limb or body movements, except those caused by respiration. A reduction in the duration of the immobility time is indicative of an antidepressant-like effect.
Male CD-1 albino mice (22–25 g; Envigo, Varese, Italy) were housed in CeSAL (Centro Stabulazione Animali da Laboratorio, University of Florence, Florence, Italy) and used at least one week after their arrival. Animals were housed in 26 cm × 41 cm cages (12 mice each) and fed with a standard laboratory diet and tap water ad libitum. They were kept at 23 ± 1 °C with a 12 h light/dark cycle, light at 7 a.m. […]
A piece of tape was adhered to the upper middle of the tail of each animal, creating a flap with the overlap of tape. […] The duration of the test was 6 min and the immobility time was measured in the first 2 min, when animals react to the inescapable stress, and in the last 4 min of the test, when the behavioral despair is established. […]
Behavioral tests were performed by visual observation by researchers blinded to the treatments. Results were expressed as means ± SEM, variance was analyzed by ANOVA. […] Data were analyzed using the “Origin 8.1” software.

mice [3] = assay: Sucrose preference test, LPS-induced anhedonia; format: in vivo, mouse; conditions: LPS 1.25 mg kg^−1 i.p. mice, 15 mg kg^−1 s.c. same protocol
Experimental: Anhedonia, or the inability to experience pleasure, is a common symptom of depression. The mood regulatory role of 18 was studied against anhedonia evaluated in the sucrose preference test in animals treated with lipopolysaccharide (LPS), a model of neuroinflammation-induced depressive-like syndrome. Compound 18 (10 mg kg^−1 and 30 mg kg^−1) was daily p.o administered for five consecutive days. Twenty-four hours after the last 18 treatment, LPS 1.25 mg kg^−1 was intraperitoneally injected. Immediately after LPS injection, mice were placed in cages equipped with two bottles: a bottle of 2% sucrose solution and a bottle of water (unsweetened tap water). The consumption of the 2% sucrose solution was evaluated 6 h and 24 h after LPS injection. Amitriptyline (15 mg kg^−1) was used as the reference drug administered following the same protocol.
as §2
Lipopolysaccharide (LPS) from Escherichia coli was purchased from Sigma-Aldrich, (Milan, Italy) freshly dissolved in sterile saline, and injected intraperitoneally (i.p.) at the dose of 1.25 mg kg^−1 [49] after five consecutive days of treatment with compound 18, 1 h after the last administration of the compound. Behavioral tests were performed before 6 h and 24 h after LPS administration.
Mice were placed in cages equipped with a couple of bottles, one containing 2% sucrose solution, the second with water (unsweetened tap water). The consumption of the 2% sucrose solution was evaluated 6 h and 24 h after the beginning of the experiment. The preference index was calculated according to the following formula: preference index = volume consumed sucrose solution/(volume consumed sucrose solution + volume consumed water).
as §3

Nc1nc(-c2ccccc2)nc2sc(-c3ccccc3)nc12 [compound 20]
IC50 (hA2B AR): > 30 µM

CN(C)CCC=C1c2ccccc2CCc2ccccc21 [amitriptyline, reference compound]
Immobility Time (mice [1]): 149.4 ± 4.6 s | Immobility Time (mice [2]): 61.6 ± 8.4 s | Sucrose Preference (%), 6 h (mice [3]; 6 h after LPS, vehicle + LPS 42.3 ± 3.1): 69.1 ± 4.8 % | Sucrose Preference (%), 24 h (mice [3]; 24 h after LPS, vehicle + LPS 38.0 ± 5.6): 70.3 ± 6.4 %
